66 molecules from ChEMBL document CHEMBL5303711, “ECBD screening data for assay EOS300108” (2023) can be followed below.

Activity calls are given as the source filed them. No rule for the calls is given here.

A short description of this data set: Cytotoxicity activity against human HepG2 cells assessed by CellTiter-Glo luminescent cell viability assay. Format: toxicity, cell-based. More on the design: assay stage confirmatory assay, source tissue liver. The settings on record: HepG2 cells, read-out: IC50 relative. Background: ATP-based viability assays read luminescence as a measure of living cells.

In the case of `CCC[C@H](NCc1csc(N(C)C)n1)c1ncccc1Cl`, the CC50 was 11.1 µM (active). The figure for `Cc1nc(-c2ccccn2)[nH]c(=O)c1CC(=O)N(C)[C@H]1CCc2ccccc21` is 6.3 µM (active); for `CCOc1ncccc1C(=O)Nc1cc(F)ccc1F` it is 1.3 µM (active); for `CC[C@H]1c2ccsc2CCN1C(=O)c1cc(OC)cc(OC)c1` it is 13 µM (active). As for `O=C(Nc1ccc(O[C@H]2CCOC2)cc1)c1cn2ccnc2s1`, the figure is 1.8 µM (active). The figure for `Oc1ccc(CCNc2ncnc3cccc(F)c23)cc1` is 3.7 µM (active); for `Cc1noc(C)c1C(=O)Nc1nc(-c2ccc(S(=O)(=O)N(C)C)cc2)cs1` it is 11.3 µM (active); for `CCOc1cc(C)c(CN2C[C@@H](CN(C)C)C[C@H](CO)C2)cc1C(C)C` it is 4.1 µM (active).

`CC(C)N(CCNS(=O)(=O)c1ccc(-n2ncc(Cl)c(Cl)c2=O)cc1)C(C)C`: the CC50 was 1.3 µM (active).

`COc1ccc(C(N)=O)cc1NC(=O)c1cc(Br)c[nH]1`: the CC50 was 1.2 µM (active). The figure for `CCc1ccc2nc(N3CCC(C(=O)NCCN(CC)CC)CC3)sc2c1` is 3.1 µM (active). The figure for `CC(C)[C@H](NC1CCN(C(=O)c2ccoc2)CC1)c1ccccc1` is 10.7 µM (active); for `Cc1c(C(=O)Nc2ccnc3ccnn23)cnn1-c1ccccc1F` it is 3.3 µM (active). As for `Cc1nc(NC(=O)c2cc(Br)cn2C)sc1C`, the CC50 is 1 µM (active). As for `CCOc1ccc(CN2CCN(C(=O)c3ccc(-c4ncon4)cc3)CC2)cc1`, the figure is 5 µM (active); as for `C[C@@H]1Oc2ccc(NC(=O)c3ccc(S(=O)(=O)NCc4ccco4)cc3)cc2NC1=O`, 6.8 µM (inactive).

On to `O=C(c1cc(-c2ccco2)on1)N1CCc2ccccc21`, for which the CC50 was 8.6 µM (active). The figure for `CCc1n[nH]cc1C(=O)N[C@H]1CC[C@H](Nc2nccc(-c3ccccn3)n2)C1` is 3.9 µM (active); for `COc1cc(OC)c2cc(CCCN)[nH]c2c1` it is 8.2 µM (active); for `Cc1ccc(F)c(C(=O)N2CCC(Oc3ccncc3C)CC2)c1` it is 11.2 µM (active).

As to `CN1CCNc2cc(Br)ccc21`, the CC50 is 15.3 µM (inactive). With `CC(=O)NCc1ccc(C(=O)Cn2ncc(Cl)c(Cl)c2=O)cc1`, the CC50 is 8 µM (active). Regarding `C[C@H]1Cc2cc(S(N)(=O)=O)ccc2N1Cc1cc(=O)n2cc(Cl)ccc2n1`, the CC50 is 10.9 µM (active). As for `CCCOc1ccccc1-n1c(C)cn2c3c(=O)n(C)c(=O)n(C)c3nc12`, the figure is 6.7 µM (active); as for `Cc1oc(-c2ccccc2)nc1C(=O)Nc1ncccc1O`, 9.6 µM (inactive); as for `CN(C)S(=O)(=O)c1cccc(NC(=O)c2ccc(S(=O)(=O)N(C)c3ccccc3)cc2)c1`, 2.6 µM (active). Regarding `NC(=O)c1c(NC(=O)Cn2ncc(Cl)c(Cl)c2=O)sc2c1CCC2`, the CC50 was 1.9 µM (active). The figure for `Oc1ccccc1N1CCN(C[C@H](O)COc2ccc(Oc3ccccc3)cc2)CC1` is 19.2 µM (inactive).

Turning to `CCN(C(=O)c1ccco1)c1nc2ccccc2s1`, the CC50 is 0.9 µM (active). The figure for `CC(C)c1nn(-c2ccccc2)cc1CNCC(C)(C)N1CCN(C)CC1` is 4.9 µM (active); for `O=c1ccc2cc(S(=O)(=O)Nc3cccc4cccnc34)ccc2o1` it is 3.5 µM (active). Turning to `c1csc(Cn2cccc2CN2CCC[C@H](N3CCCC3)CC2)c1`, the CC50 was 5.2 µM (active). Regarding `O=C(COc1ccc(F)cc1)N1CCN(c2ncnc3c(F)cccc23)CC1`, the CC50 is 9.7 µM (active). Regarding `OC1(CNCCSCc2cccc(Cl)c2)CCNC1` (stereo unspecified), the CC50 is 8.4 µM (active). In the case of `c1cc2c(cc1-c1ccc3c(n1)CCCN3)CCN2`, the CC50 is 13.5 µM (inactive).

Turning to `Nc1nccc(-n2nnc3ccccc32)n1`, the CC50 is 8.7 µM (active).

For the molecule `CC(C)c1cc(N2CCN(c3ccc(C#N)cc3)CC2)ncn1`, the CC50 was 5.7 µM (active). As for `COc1ccc(OCCN2CCN(C(=O)c3ccc(OCc4cn5ccccc5n4)cc3)CC2)cc1`, the figure is 4.3 µM (active); as for `CN(C)C1CCN(C(C)(C)CNCc2cccc(Cl)c2N)CC1`, 12 µM (active); as for `COc1ccc(OC)c(N2C[C@@H](C(=O)Nc3ccc(Cl)cn3)CC2=O)c1`, 4.7 µM (active). As for `CCCOc1ccc(NC(=O)N2CCN(c3ccncc3)CC2)cc1Cl`, the figure is 7.4 µM (active). The figure for `Cc1cccc2nc(C(=O)Nc3cccnc3-n3cccn3)cn12` is 7 µM (active); for `CCn1c(=O)c(C)nc2cc(C(=O)N3CCN(Cc4ccc(OC)cc4)CC3)ccc21` it is 7.3 µM (active); for `Clc1ccc2oc(C3CCNCC3)cc2c1` it is 10.1 µM (active).

In the case of `O[C@H]1CCN(Cc2csc(-c3ccoc3)n2)C12CCCC2`, the CC50 is 5 µM (active). As to `N#Cc1ccc(NC(=O)Nc2cnn(-c3ccccc3)c2)cc1`, the CC50 was 8.9 µM (active).

With `CC(C)Cn1ccnc1NC(=O)COc1ccc2ccccc2c1`, the CC50 is 1.1 µM (active). As for `COc1cccc(NC(=O)CN(C)C(=O)Cn2ncc(Cl)c(Cl)c2=O)c1`, the figure is 8.5 µM (active). `COCCNc1ncnc2scc(-c3ccccc3)c12`: the CC50 was 8.6 µM (active).

For `COc1ccc(CN2CCN(c3ncnc4sccc34)CC2)cc1OC`, the CC50 was 1.4 µM (active). The figure for `CC(=O)NCCc1ccc(C(=O)Cn2ncc(Cl)c(Cl)c2=O)s1` is 7.8 µM (active); for `CC(=O)Nc1cccc(NC(=O)c2cc3ccccc3cc2O)c1` it is 1.6 µM (inactive); for `Cc1cccc(C(=O)Nc2nc3ccccc3[nH]2)n1` it is 4.4 µM (active). The figure for `O=C(Cn1ncc(Cl)c(Cl)c1=O)N1CCC[C@H]1c1cccs1` is 4.2 µM (active); for `O=C(Nc1ccc(O)cc1)c1cnn(Cc2ccccc2Cl)c1` it is 8.4 µM (active). As for `O=C(Cn1nnc2ccccc21)Nc1nc(-c2ccccn2)cs1`, the figure is 1.7 µM (active); as for `CC(C)CCOc1ccc(CN(CC(C)(C)N(C)C)S(C)(=O)=O)cc1`, 12.2 µM (active). In the case of `CN(C)Cc1ccc(C(=O)Nc2nc3c(s2)CCCC3)cc1`, the CC50 was 11.3 µM (active). As for `CNc1c(Cl)ncnc1NCc1cccc(Cn2cccn2)c1`, the figure is 1.4 µM (active); as for `Cc1cccc(C(=O)Nc2ccc(C(=O)Nc3cccnc3)cc2)n1`, 5.8 µM (active); as for `CCN(C(=O)c1c[nH]n2c1nc(=O)c1ccccc12)[C@@H](C)c1ccc(F)cc1`, 5 µM (active). As for `O=C(Nc1ncc(-c2ccccc2)s1)c1ccccn1`, the figure is 2.3 µM (active); as for `Cc1ccc(NC(=O)c2ccc(Cl)s2)cc1S(=O)(=O)N1CCOCC1`, 4.7 µM (active). The figure for `Cc1cc2c(N3CC[C@@]4(C3)NC(=O)N(C)C4=O)ccnc2cc1Cl` is 8.6 µM (active). As to `Clc1ccc(-c2cnc(CN3CC4(CCNCC4)[C@H]4COC[C@H]43)o2)cc1`, the CC50 was 12.8 µM (active). As for `CCOc1cc(C(=O)N[C@H]2CCN(C3CCN(C)CC3)C2)ccc1C`, the CC50 is 15.9 µM (inactive).
